According to ChEMBL document CHEMBL1126408, “CP-70,030 and CP-75,998: The first non-peptide antagonists of bombesin and gastrin releasing peptide” (Bioorg Med Chem Lett, 1992):
The source made the active and inactive calls. No cut-off for these calls is given here.

Columns and labels:
Rattus norvegicus [1] = species on record: Rattus norvegicus; experiment: Antagonistic activity as a measure of bombesin-induced phosphoinositide turnover in rat pituitary GH3 cells; 1.5-3 uM; format: functional, cell-based
Rattus norvegicus [2] = species on record: Rattus norvegicus; experiment: Agonistic activity up to a conc 30 uM measured as elevation of inositol phosphate production in absence of bombesin in rat pituitary GH3 cells; NA is no measurable agonist activity; format: functional, cell-based
[3] = molecular target: Gastrin-releasing peptide receptor (Rattus norvegicus, UniProt P52500); experiment: Compound was evaluated for displacement of radiolabeled [I-125]GRP from rat brain receptor; 1.5-3 uM
Gastrin-releasing peptide receptor, sequence (P52500 whole entry): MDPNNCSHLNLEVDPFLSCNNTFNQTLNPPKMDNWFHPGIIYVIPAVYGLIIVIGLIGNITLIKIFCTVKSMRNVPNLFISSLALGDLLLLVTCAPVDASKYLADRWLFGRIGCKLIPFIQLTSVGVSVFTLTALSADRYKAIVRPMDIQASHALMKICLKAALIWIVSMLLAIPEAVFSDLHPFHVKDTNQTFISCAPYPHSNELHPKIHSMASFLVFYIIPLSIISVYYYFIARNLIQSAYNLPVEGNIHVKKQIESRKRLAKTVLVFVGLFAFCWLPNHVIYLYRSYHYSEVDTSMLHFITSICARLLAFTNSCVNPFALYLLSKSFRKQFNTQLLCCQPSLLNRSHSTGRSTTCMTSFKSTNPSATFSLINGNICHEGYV

[4] = molecular target: Gastrin-releasing peptide receptor (Homo sapiens) (UniProt P30550); experiment: Compound up to a conc of 32 uM was tested for displacement of radiolabeled GRP from its receptors on bombesin-responsive human SCLC cell line N592; […]
Gastrin-releasing peptide receptor (Homo sapiens), sequence (P30550 whole entry, looked up): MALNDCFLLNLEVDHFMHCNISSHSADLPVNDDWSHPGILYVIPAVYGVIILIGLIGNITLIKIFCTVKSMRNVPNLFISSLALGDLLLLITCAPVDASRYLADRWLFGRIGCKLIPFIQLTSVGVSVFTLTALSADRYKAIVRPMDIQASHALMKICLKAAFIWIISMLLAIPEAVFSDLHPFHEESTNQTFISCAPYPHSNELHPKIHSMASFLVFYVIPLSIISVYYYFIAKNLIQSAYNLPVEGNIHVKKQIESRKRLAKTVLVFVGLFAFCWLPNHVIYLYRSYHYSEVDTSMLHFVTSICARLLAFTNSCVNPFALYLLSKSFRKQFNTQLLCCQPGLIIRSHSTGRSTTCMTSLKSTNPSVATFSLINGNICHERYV

Row | IC50 (Rattus norvegicus [1]) | IC50 [3] | Activity [4] | SMILES | Activity (Rattus norvegicus [2])
1 | 1500 nM | 1500 nM | inactive | CCN1C(=O)/C(=C/c2cc(C(C)(C)C)c(O)c(C(C)(C)C)c2)c2cc(OCc3ccccc3C(=O)O)ccc21 | inactive
2 | 1500 nM | 1500 nM | inactive | O=C1NC(=O)C2(N1)C(=O)N(Cc1ccc(Cl)c(Cl)c1)c1ncc(Br)cc12 (stereo not drawn) | inactive
